Columns and labels:
human IR (hIR) = target: T1, human IR (hIR) (Homo sapiens, UniProt P06213); test: TR-FRET kinase assay of purified hIR; assay type: biochemical; details: activated hIR 0.5 nM, 10 μM ATP, values given as pIC50 category
T1 construct: containing amino acid residues 979-1382 of human IR; made in house; host or cells: Sf9 cells (baculovirus), same process as hIGF1R

human IGF1R (hIGF1R) = target: T2, human IGF1R (hIGF1R) (Homo sapiens, UniProt P08069); test: TR-FRET kinase assay of purified hIGF1R; assay type: biochemical; details: activated hIGF1R 0.5 nM, 10 μM ATP, values given as pIC50 category, read-out: IGF-1R pIC50 (converted)
T2 construct: containing amino acid residues 957-1367 of human IGF1R; made in house; host or cells: Sf9 cells (baculovirus)
T2 sequence (P08069 957-1367): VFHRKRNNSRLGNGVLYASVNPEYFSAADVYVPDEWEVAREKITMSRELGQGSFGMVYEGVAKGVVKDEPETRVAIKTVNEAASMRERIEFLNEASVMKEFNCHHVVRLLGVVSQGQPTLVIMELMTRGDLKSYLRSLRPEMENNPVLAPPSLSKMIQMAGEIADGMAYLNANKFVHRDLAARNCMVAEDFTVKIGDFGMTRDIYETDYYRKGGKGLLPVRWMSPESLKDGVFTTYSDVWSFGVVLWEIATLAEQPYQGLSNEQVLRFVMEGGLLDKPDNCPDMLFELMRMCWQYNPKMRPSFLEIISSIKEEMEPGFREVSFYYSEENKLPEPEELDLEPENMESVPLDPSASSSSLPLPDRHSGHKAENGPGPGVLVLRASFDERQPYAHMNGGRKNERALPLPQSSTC

[1] = target: T3, NIH-3T3 cells overexpressing human IGF-1R (Homo sapiens, UniProt P08069); test: IGF-1R cellular autophosphorylation (DELFIA); assay type: cell-based
T3 construct: expressed in transfected cells; host or cells: NIH-3T3 (mouse fibroblasts)
T3 sequence (P08069 31-1367): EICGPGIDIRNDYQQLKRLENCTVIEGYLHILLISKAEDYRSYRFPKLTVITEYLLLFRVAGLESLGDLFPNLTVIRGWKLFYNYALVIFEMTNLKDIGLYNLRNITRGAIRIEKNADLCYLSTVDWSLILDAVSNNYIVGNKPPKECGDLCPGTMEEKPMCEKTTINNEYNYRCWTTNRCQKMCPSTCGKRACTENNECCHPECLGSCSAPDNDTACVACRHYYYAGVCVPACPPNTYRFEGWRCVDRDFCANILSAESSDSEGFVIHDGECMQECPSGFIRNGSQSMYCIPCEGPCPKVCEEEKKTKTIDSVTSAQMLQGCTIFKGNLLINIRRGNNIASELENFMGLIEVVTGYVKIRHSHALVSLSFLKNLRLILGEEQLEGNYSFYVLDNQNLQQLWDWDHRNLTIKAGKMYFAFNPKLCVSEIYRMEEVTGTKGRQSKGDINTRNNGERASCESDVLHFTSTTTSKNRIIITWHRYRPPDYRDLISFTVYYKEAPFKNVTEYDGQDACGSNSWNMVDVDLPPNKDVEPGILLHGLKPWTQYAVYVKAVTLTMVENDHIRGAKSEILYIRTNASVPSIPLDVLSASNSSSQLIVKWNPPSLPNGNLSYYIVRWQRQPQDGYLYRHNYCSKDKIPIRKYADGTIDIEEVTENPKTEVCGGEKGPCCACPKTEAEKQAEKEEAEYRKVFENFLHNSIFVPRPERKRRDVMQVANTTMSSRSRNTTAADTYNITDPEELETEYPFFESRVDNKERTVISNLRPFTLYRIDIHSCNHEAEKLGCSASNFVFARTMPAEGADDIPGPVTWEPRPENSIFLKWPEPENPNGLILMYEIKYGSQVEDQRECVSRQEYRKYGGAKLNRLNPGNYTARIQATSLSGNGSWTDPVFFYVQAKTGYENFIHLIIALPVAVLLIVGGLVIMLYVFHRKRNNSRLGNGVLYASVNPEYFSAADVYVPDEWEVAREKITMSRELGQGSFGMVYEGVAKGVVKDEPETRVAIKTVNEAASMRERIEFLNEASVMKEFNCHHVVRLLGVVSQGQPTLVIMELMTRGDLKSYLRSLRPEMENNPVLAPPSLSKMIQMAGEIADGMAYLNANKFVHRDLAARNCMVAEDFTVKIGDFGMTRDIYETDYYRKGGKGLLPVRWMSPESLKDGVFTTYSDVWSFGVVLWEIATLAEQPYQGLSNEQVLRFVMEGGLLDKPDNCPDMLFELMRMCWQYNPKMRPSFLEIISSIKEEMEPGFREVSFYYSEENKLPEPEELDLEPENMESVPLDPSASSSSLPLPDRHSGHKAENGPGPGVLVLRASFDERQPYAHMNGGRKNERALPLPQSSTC
How it was run: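 Receptor autophosphorylation measured by DELFIA, capturing IGF-1R or IRβ and detecting with europium anti-pTyr, reported as percent of IGF-1- or insulin-stimulated signal. Compounds (30 uM to 1.5 nM) added 2 h before ligand, then 15 min stimulation (IGF-1 30 ng/ml or insulin 3 ug/ml).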

T1 sequence (P06213 979-1382): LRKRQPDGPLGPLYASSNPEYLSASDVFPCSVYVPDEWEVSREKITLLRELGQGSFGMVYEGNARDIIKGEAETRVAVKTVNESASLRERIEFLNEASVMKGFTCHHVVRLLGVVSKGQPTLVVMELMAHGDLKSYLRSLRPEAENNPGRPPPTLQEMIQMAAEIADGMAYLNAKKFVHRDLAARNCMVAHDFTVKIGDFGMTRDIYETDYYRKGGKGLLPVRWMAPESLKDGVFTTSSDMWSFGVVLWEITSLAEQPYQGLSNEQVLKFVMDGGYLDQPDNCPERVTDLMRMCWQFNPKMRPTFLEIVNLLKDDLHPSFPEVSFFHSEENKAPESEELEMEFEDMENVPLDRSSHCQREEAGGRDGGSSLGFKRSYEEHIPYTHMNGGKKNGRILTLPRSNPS

| SMILES | IC50 (human IR (hIR)) [nM] | IC50 (human IGF1R (hIGF1R)) [nM] | IC50 [1] [nM] |
| --- | --- | --- | --- |
| COc1cc2c(cc1Nc1nc(Nc3ccc(F)c(F)c3C(=O)NC(C)C)c3cc[nH]c3n1)N(C(=O)CN(C)C)CC2 [Example 161, 6-[(2-{[1-(N,N-dimethylglycyl)-5-(methyloxy)-2,3-dihydro-1H-indol-6-yl]amino}-1H-pyrrolo[2,3-d]pyrimidin-4-yl)amino]-2,3-difluoro-N-(1-methylethyl)benzamide] | 5.01 to 158 | 5.01 to 200 | 100 to 500 |
| COc1cc2c(cc1Nc1nc(Nc3cc(F)cc(F)c3C(N)=O)c3cc[nH]c3n1)NCCC2 [Example 220, 2,4-difluoro-6-[(2-{[6-(methyloxy)-1,2,3,4-tetrahydro-7-quinolinyl]amino}-1H-pyrrolo[2,3-d]pyrimidin-4-yl)amino]benzamide] | – | 5.01 to 200 | 100 to 500 |
| CNC(=O)c1c(F)cccc1Nc1nc(Nc2cc3c(cc2OC)CCC(=O)N3)nc2[nH]ccc12 [Example 222, 2-fluoro-N-methyl-6-[(2-{[6-(methyloxy)-2-oxo-1,2,3,4-tetrahydro-7-quinolinyl]amino}-1H-pyrrolo[2,3-d]pyrimidin-4-yl)amino]benzamide] | – | 5.01 to 200 | > 500 |
| COc1cc(N2CCCN(S(C)(=O)=O)CC2)ccc1Nc1nc(Nc2cccc(F)c2C(N)=O)c2cc[nH]c2n1 [Example 207, 2-fluoro-6-{[2-({2-(methyloxy)-4-[4-(methylsulfonyl)hexahydro-1H-1,4-diazepin-1-yl]phenyl}amino)-1H-pyrrolo[2,3-d]pyrimidin-4-yl]amino}benzamide] | 5.01 to 158 | 5.01 to 200 | > 500 |
| CCCN(C)CC(=O)N1CCc2cc(OC)c(Nc3nc(Nc4cccc(F)c4C(N)=O)c4cc[nH]c4n3)cc21 [Example 168, 2-fluoro-6-[(2-{[5-(methyloxy)-1-(N-methyl-N-propylglycyl)-2,3-dihydro-1H-indol-6-yl]amino}-1H-pyrrolo[2,3-d]pyrimidin-4-yl)amino]benzamide] | 0.251 to 1 | 0.251 to 1 | < 100 |
| COc1cc2c(cc1Nc1nc(Nc3cccc(F)c3C(N)=O)c3cc[nH]c3n1)CN(C(=O)CCN1CCN(C(C)C)CC1)CC2 [Example 229, 2-fluoro-6-[(2-{[2-{3-[4-(1-methylethyl)-1-piperazinyl]propanoyl}-6-(methyloxy)-1,2,3,4-tetrahydro-7-isoquinolinyl]amino}-1H-pyrrolo[2,3-d]pyrimidin-4-yl)amino]benzamide] | 5.01 to 158 | 5.01 to 200 | > 500 |
| COc1cc2c(cc1Nc1nc(Nc3cccc(F)c3C(N)=O)c3cc[nH]c3n1)N(C(=O)N(C)C)CC2 [Example 146, 6-[(4-{[2-(aminocarbonyl)-3-fluorophenyl]amino}-1H-pyrrolo[2,3-d]pyrimidin-2-yl)amino]-N,N-dimethyl-5-(methyloxy)-2,3-dihydro-1H-indole-1-carboxamide] | 5.01 to 158 | 5.01 to 200 | > 500 |
| CNC(=O)c1cc2ccccc2cc1Nc1nc(Nc2cc3c(cc2OC)CCN3C(=O)CN(C)C)nc2[nH]ccc12 [Example 125, 3-[(2-{[1-(N,N-dimethylglycyl)-5-(methyloxy)-2,3-dihydro-1H-indol-6-yl]amino}-1H-pyrrolo[2,3-d]pyrimidin-4-yl)amino]-N-methyl-2-naphthalenecarboxamide] | 0.251 to 1 | 0.251 to 1 | 100 to 500 |
| COCC(=O)N1CCc2cc(OC)c(Nc3nc(Nc4cccc(F)c4C(N)=O)c4cc[nH]c4n3)cc21 [Example 149, 2-fluoro-6-{[2-({5-(methyloxy)-1-[(methyloxy)acetyl]-2,3-dihydro-1H-indol-6-yl}amino)-1H-pyrrolo[2,3-d]pyrimidin-4-yl]amino}benzamide] | 5.01 to 158 | 5.01 to 200 | 100 to 500 |
| COc1cc(N2CCN(S(C)(=O)=O)CC2)ccc1Nc1nc(Nc2cccc(F)c2C(N)=O)c2cc[nH]c2n1 [Example 204, 2-fluoro-6-{[2-({2-(methyloxy)-4-[4-(methylsulfonyl)-1-piperazinyl]phenyl}amino)-1H-pyrrolo[2,3-d]pyrimidin-4-yl]amino}benzamide] | 1.26 to 3.98 | 5.01 to 200 | > 500 |
| COc1cc2c(cc1Nc1nc(Nc3cccc(F)c3C(N)=O)c3cc[nH]c3n1)N(C(=O)CN(C)OC)CC2 [Example 144, 2-fluoro-6-[(2-{[1-[N-methyl-N-(methyloxy)glycyl]-5-(methyloxy)-2,3-dihydro-1H-indol-6-yl]amino}-1H-pyrrolo[2,3-d]pyrimidin-4-yl)amino]benzamide] | 5.01 to 158 | 5.01 to 200 | > 500 |
| CCCN1CCC=C(c2ccc(Nc3nc(Nc4ccc(F)cc4C(N)=O)c4cc[nH]c4n3)c(OC)c2)C1 [Example 54, 5-fluoro-2-[(2-{[2-(methyloxy)-4-(1-propyl-1,2,5,6-tetrahydro-3-pyridinyl)phenyl]amino}-1H-pyrrolo[2,3-d]pyrimidin-4-yl)amino]benzamide] | 0.251 to 1 | 0.251 to 1 | 100 to 500 |
| COc1cc2c(cc1Nc1nc(Nc3cccc(F)c3C(N)=O)c3cc[nH]c3n1)NCC2 [Example 140, 2-fluoro-6-[(2-{[5-(methyloxy)-2,3-dihydro-1H-indol-6-yl]amino}-1H-pyrrolo[2,3-d]pyrimidin-4-yl)amino]benzamide] | 5.01 to 158 | 5.01 to 200 | > 500 |
| COc1cc(N2CCOC[C@@H]2C)ccc1Nc1nc(Nc2cc(F)ccc2C(N)=O)c2cc[nH]c2n1 [Example 84, 4-fluoro-2-[(2-{[4-[(3S)-3-methyl-4-morpholinyl]-2-(methyloxy)phenyl]amino}-1H-pyrrolo[2,3-d]pyrimidin-4-yl)amino]benzamide] | 0.251 to 1 | 0.251 to 1 | < 100 |
| CNC(=O)c1c(F)cc(F)cc1Nc1nc(Nc2cc3c(cc2OC)CCCN3C(=O)CN2CCCC2)nc2[nH]ccc12 [Example 221, 2,4-difluoro-N-methyl-6-[(2-{[6-(methyloxy)-1-(1-pyrrolidinylacetyl)-1,2,3,4-tetrahydro-7-quinolinyl]amino}-1H-pyrrolo[2,3-d]pyrimidin-4-yl)amino]benzamide] | 0.251 to 1 | 0.251 to 1 | < 100 |
| COc1cc2c(cc1Nc1nc(Nc3cccc(F)c3C(N)=O)c3cc[nH]c3n1)N(C(=O)CCN1CCN(C(C)C)CC1)CC2 [Example 188, 2-fluoro-6-[(2-{[1-{3-[4-(1-methylethyl)-1-piperazinyl]propanoyl}-5-(methyloxy)-2,3-dihydro-1H-indol-6-yl]amino}-1H-pyrrolo[2,3-d]pyrimidin-4-yl)amino]benzamide] | 5.01 to 158 | 5.01 to 200 | > 500 |
| COc1cc2c(cc1Nc1nc(Nc3cccc(F)c3C(N)=O)c3cc[nH]c3n1)N(C(=O)CN(C)C)CC2 [Example 53, 2-[(2-{[1-(N,N-dimethylglycyl)-5-(methyloxy)-2,3-dihydro-1H-indol-6-yl]amino}-1H-pyrrolo[2,3-d]pyrimidin-4-yl)amino]-6-fluorobenzamide] | – | 0.251 to 1 | < 100 |
| COc1cc2c(cc1Nc1nc(Nc3cc(F)cc(F)c3C(N)=O)c3cc[nH]c3n1)N(C(=O)CN1CCCC1)CCC2 [Example 219, 2,4-difluoro-6-[(2-{[6-(methyloxy)-1-(1-pyrrolidinylacetyl)-1,2,3,4-tetrahydro-7-quinolinyl]amino}-1H-pyrrolo[2,3-d]pyrimidin-4-yl)amino]benzamide] | 0.251 to 1 | 0.251 to 1 | < 100 |
| COc1cc2c(cc1Nc1nc(Nc3cccc(F)c3C(N)=O)c3cc[nH]c3n1)N(C(=O)CN(C)C)CCC2 [Example 210, 2-[(2-{[1-(N,N-dimethylglycyl)-6-(methyloxy)-1,2,3,4-tetrahydro-7-quinolinyl]amino}-1H-pyrrolo[2,3-d]pyrimidin-4-yl)amino]-6-fluorobenzamide] | 0.251 to 1 | 0.251 to 1 | < 100 |
| COc1cc2c(cc1Nc1nc(Nc3cccc(F)c3C(N)=O)c3cc[nH]c3n1)N(C(=O)Cn1ccnc1)CC2 [Example 145, 2-fluoro-6-[(2-{[1-(1H-imidazol-1-ylacetyl)-5-(methyloxy)-2,3-dihydro-1H-indol-6-yl]amino}-1H-pyrrolo[2,3-d]pyrimidin-4-yl)amino]benzamide] | 5.01 to 158 | 5.01 to 200 | > 500 |
| COc1cc2c(cc1Nc1nc(Nc3cccc4c3C(=O)NC4)c3cc[nH]c3n1)N(C(=O)CN(C)C)CC2 [Example 200, 7-[(2-{[1-(N,N-dimethylglycyl)-5-(methyloxy)-2,3-dihydro-1H-indol-6-yl]amino}-1H-pyrrolo[2,3-d]pyrimidin-4-yl)amino]-2,3-dihydro-1H-isoindol-1-one] | 0.251 to 1 | 0.251 to 1 | < 100 |
| COc1cc(N2CCN(C(C)C)CC2)ccc1Nc1nc(Nc2ccccc2C(N)=O)c2cc[nH]c2n1 [Example 7, 2-[(2-{[4-[4-(1-methylethyl)-1-piperazinyl]-2-(methyloxy)phenyl]amino}-1H-pyrrolo[2,3-d]pyrimidin-4-yl)amino]benzamide] | 0.251 to 1 | 0.251 to 1 | < 100 |
| CNC(=O)c1c(F)cccc1Nc1nc(Nc2cc3c(cc2OC)CCCN3C(=O)[C@@H]2CCCN2C)nc2[nH]ccc12 [Example 202, 2-fluoro-N-methyl-6-[(2-{[6-(methyloxy)-1-(1-methyl-L-prolyl)-1,2,3,4-tetrahydro-7-quinolinyl]amino}-1H-pyrrolo[2,3-d]pyrimidin-4-yl)amino]benzamide] | 5.01 to 158 | 5.01 to 200 | 100 to 500 |

Reference: patent US7981903B2, “2-[2-{phenylamino}-1H-pyrrolo[2,3-D]pyrimidin-4-yl)amino] benzamide derivatives as IGF-1R inhibitors for the treatment of cancer” (GlaxoSmithKline LLC, priority 2007, dated 2011)
